Data published in ChEMBL document CHEMBL4052696, “Varic acid analogues from fungus as PTP1B inhibitors: Biological evaluation and structure-activity relationships” (Bioorg Med Chem Lett, 2017).
Active and inactive are the calls of the source. The calls are words filed in the database; no cut-off is given here.

Columns and labels:
Rattus norvegicus [1] = experiment: Increase in insulin-induced glucose lowering effect in normal Wistar rat at 10 mg/kg, ip dosed 30 mins before insulin injection and measured 30 mins post insulin injection by glucose-oxidase assay; assay type: functional, organism-based
Rattus norvegicus [2] = experiment: Increase in insulin-induced glucose lowering effect in type 2 diabetic Wistar rat at 10 mg/kg, ip dosed 30 mins before insulin injection and measured 30 mins post insulin injection by glucose-oxidase assay; assay type: functional, organism-based
[3] = biological target: T1, Tyrosine-protein phosphatase non-receptor type 1 (Homo sapiens) (UniProt P18031); experiment: Reversible inhibition of PTP1B (unknown origin) at 0.1 to 0.4 uM using p-nitrophenyl phosphate substrate incubated for 30 mins by Lineweaver-Burk double reciprocal plot
T1 sequence (whole entry): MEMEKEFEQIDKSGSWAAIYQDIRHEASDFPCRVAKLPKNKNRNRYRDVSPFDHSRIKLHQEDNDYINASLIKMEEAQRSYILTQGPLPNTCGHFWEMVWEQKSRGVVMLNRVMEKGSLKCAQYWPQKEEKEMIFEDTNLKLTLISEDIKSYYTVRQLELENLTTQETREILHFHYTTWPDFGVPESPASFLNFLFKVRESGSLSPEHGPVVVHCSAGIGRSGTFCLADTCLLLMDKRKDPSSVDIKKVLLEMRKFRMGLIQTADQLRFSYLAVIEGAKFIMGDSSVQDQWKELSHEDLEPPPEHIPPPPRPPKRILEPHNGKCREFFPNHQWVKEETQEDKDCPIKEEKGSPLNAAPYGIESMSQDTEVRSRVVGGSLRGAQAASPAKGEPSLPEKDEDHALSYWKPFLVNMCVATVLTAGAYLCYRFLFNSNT

inhibition [3]: Active
SMILES: CCCc1cc(OC(=O)c2c(O)cc(OC(=O)c3c(O)cc(O)cc3CCC)cc2CCC)cc(O)c1C(=O)O
Activity (Rattus norvegicus [1]): Active | Activity (Rattus norvegicus [2]): Active
